Measurements published in patent US20260217698A1 (BEYANG THERAPEUTICS CO., LTD., priority 2022, published 2026).

Key:
VEGFR2 = VEGFR2 (Homo sapiens, UniProt P35968); assay: Kinase inhibition, Mobility Shift Assay/IMAP, VEGFR2; format: biochemical; design: purchased Carna 08-191
From the text: (§1) This assay directly monitored the ability of compounds to inhibit kinase phosphorylation by measuring non-phosphorylated and phosphorylated substrates in kinase reactions by using Mobility Shift Assays/IMAP™ analysis.
(§2) Read the conversion ratio data on CaliperEZ Reader II. Convert conversion rates into inhibition ratio data.
(§3) “Min” indicates the readout of the control well without the addition of enzymes; and “Max” indicates the readout of the control well with the addition of DMSO Fit IC50 values with XL Fit excel add-in version […].
(§4) X indicates the log value of compound concentration, and Y indicates the inhibition ratio (% inhibition).

EGFR = biological target: T1, EGFR (Homo sapiens, UniProt P00533); assay: Kinase inhibition, Mobility Shift Assay/IMAP, EGFR; format: biochemical
T1 construct: purchased Carna 08-115
From the text: as §1, §2, §3, §4

T1 sequence (P00533 669-1210 limits assumed): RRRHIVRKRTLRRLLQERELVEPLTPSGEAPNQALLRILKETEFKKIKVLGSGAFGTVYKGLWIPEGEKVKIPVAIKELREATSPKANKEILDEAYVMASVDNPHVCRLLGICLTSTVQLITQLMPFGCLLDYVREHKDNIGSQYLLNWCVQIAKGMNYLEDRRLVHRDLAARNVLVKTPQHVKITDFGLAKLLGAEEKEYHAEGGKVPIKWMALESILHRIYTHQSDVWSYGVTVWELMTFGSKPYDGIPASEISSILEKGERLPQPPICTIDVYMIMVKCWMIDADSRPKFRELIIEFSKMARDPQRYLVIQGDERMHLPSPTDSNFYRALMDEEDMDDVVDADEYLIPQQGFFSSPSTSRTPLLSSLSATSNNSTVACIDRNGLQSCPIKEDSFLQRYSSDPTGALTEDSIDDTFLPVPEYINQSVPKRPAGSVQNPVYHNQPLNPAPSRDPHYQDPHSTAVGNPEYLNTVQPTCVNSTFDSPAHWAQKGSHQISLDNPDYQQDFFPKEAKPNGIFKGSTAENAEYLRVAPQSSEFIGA
Chain of VEGFR2 (P35968 790-1356 limits assumed): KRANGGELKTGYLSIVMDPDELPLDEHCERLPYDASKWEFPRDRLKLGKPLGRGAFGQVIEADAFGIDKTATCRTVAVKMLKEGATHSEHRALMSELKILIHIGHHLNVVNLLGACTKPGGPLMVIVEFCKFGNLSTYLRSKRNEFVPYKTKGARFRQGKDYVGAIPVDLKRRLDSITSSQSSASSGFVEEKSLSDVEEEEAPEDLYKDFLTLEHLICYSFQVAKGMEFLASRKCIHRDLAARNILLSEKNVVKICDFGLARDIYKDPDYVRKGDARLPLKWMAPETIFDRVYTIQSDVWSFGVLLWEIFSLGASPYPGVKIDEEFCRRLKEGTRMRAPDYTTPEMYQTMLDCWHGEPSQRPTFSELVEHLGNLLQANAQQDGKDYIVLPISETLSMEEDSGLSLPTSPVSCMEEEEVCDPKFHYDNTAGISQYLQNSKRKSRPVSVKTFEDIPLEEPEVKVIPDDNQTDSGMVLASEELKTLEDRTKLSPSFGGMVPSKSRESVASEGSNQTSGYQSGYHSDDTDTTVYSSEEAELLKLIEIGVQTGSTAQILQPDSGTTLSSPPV

Compound	IC50 (VEGFR2)	IC50 (EGFR)
Cn1nc(COc2nsc(NC(=O)NCCCCN3CCCC3)c2C(N)=O)c2ccccc21 [Compound T002, 3-((1-methyl-1H-indazol-3-yl)methoxy)-5-(3-(4-(pyrrolidin-1-yl)butyl)ureido)isothiazole-4-carboxamide]	130 nM	
NC(=O)c1c(OCc2cccc(OC3CC3)c2)nsc1NC(=O)NCCCCN1CCCC1 [Compound T003, 3-((3-cyclopropoxybenzyl)oxy)-5-(3-(4-(pyrrolidin-1-yl)butyl)ureido)isothiazole-4-carboxamide]	112 nM	
Cn1ncc2c(COc3nsc(NC(=O)NCCCCN4CCCC4)c3C(N)=O)cccc21 [Compound T004, 3-((1-methyl-1H-indazol-4-yl)methoxy)-5-(3-(4-(pyrrolidin-1-yl)butyl)ureido)isothiazole-4-carboxamide]	163 nM	
Cc1cc(COc2nsc(NC(=O)NCCCCN3CCCC3)c2C(N)=O)nn1C [Compound T009, 3-((1,5-dimethyl-1H-pyrazol-3-yl)methoxy)-5-(3-(4-(pyrrolidin-1-yl)butyl)ureido)isothiazole-4-carboxamide]	217 nM	
COc1cccc(COc2nsc(NC(=O)NCCCCN3CCCC3)c2C(N)=O)c1OC [Compound T032, 3-((2,3-dimethoxybenzyl)oxy)-5-(3-(4-(pyrrolidin-1-yl)butyl)ureido)isothiazole-4-carboxamide]	56.8 nM	39.6 µM
CC(C)(C)OC(=O)N1CCN(CCn2cc(Nc3snc(OCc4c(F)cc(Br)cc4F)c3C(N)=O)cn2)CC1 [Compound T046]	62 nM	
CC(C)NC(=O)c1cccc(COc2nsc(NC(=O)NCCCCN3CCCC3)c2C(N)=O)c1 [Compound T057, 3-((3-(isopropylcarbamoyl)benzyl)oxy)-5-(3-(4-(pyrrolidin-1-yl)butyl)ureido)isothiazole-4-carboxamide]	152 nM	> 60 µM
COc1cc(F)c(F)c(COc2nsc(NC(=O)NCCCCN3CCCC3)c2C(N)=O)c1F [Compound T142, 5-(4-pyrrolidin-1-ylbutylcarbamoylamino)-3-[(2,3,6-trifluoro-5-methoxy-phenyl)methoxy]isothiazole-4-carboxamide]	6.6 nM	31 µM
NC(=O)c1c(OCc2c(F)ccc(OC(F)F)c2F)nsc1NC(=O)NCCCCN1CCCC1 [Compound T148, 3-[[3-(difluoromethoxy)-2,6-difluoro-phenyl]methoxy]-5-(4-pyrrolidin-1-ylbutylcarbamoylamino)isothiazole-4-carboxamide]	16 nM	4.01 µM
CC(=O)N1CCN(CCCNC(=O)Nc2snc(OCc3ccc(F)c(C(=O)NC4CC4)c3)c2C(N)=O)CC1 [Compound T157, 5-[3-(4-acetylpiperazin-1-yl)propylcarbamoylamino]-3-[[3-(cyclopropylcarbamoyl)-4-fluoro-phenyl]methoxy]isothiazole-4-carboxamide]	2.5 nM	15.2 µM
NC(=O)c1c(OCc2cc(C(=O)NC3CC3)ccc2F)nsc1N [Compound T159, 5-amino-3-[[5-(cyclopropylcarbamoyl)-2-fluoro-phenyl]methoxy]isothiazole-4-carboxamide]	41.7 nM	8.77 µM
NC(=O)c1ccc(F)c(COc2nsc(NC(=O)NCCCN3CC[C@H](F)C3)c2C(N)=O)c1 [Compound T168, 3-[(5-carbamoyl-2-fluoro-phenyl)methoxy]-5-[3-[(3S)-3-fluoropyrrolidin-1-yl]propylcarbamoylamino]isothiazole-4-carboxamide]	8.45 nM	

Compounds with a lower IC50 (VEGFR2), results first:

IC50 (VEGFR2)	IC50 (EGFR)	Compound
1.97 nM	5.91 µM	CC(C)(C)OC(=O)CCNC(=O)Nc1snc(OCc2cc(C(=O)NC3CC3)ccc2F)c1C(N)=O [Compound T173, Tert-butyl 3-[[4-carbamoyl-3-[[5-(cyclopropylcarbamoyl)-2-fluoro-phenyl]methoxy]isothiazol-5-yl]carbamoylamino]propanoate]
1.46 nM	31.6 µM	NC(=O)c1c(OCc2ccc(F)c(C(=O)NC3CC3)c2)nsc1NC(=O)NCCCN1CCN(C2CC2)CC1 [Compound T165, 3-[[3-(cyclopropylcarbamoyl)-4-fluoro-phenyl]methoxy]-5-[3-(4-cyclopropylpiperazin-1-yl)propylcarbamoylamino]isothiazole-4-carboxamide]
1.44 nM		CC(=O)N1CCN(CCCNC(=O)Nc2snc(OCc3cc(C(=O)NC4CC4)ccc3F)c2C(N)=O)CC1 [Compound T156, 5-[3-(4-acetylpiperazin-1-yl)propylcarbamoylamino]-3-[[5-(cyclopropylcarbamoyl)-2-fluoro-phenyl]methoxy]isothiazole-4-carboxamide]
1.25 nM	12.2 µM	CCN1CCN(CCCNC(=O)Nc2snc(OCc3ccc(F)c(C(=O)NC4CC4)c3)c2C(N)=O)CC1 [Compound T164, 3-[[3-(cyclopropylcarbamoyl)-4-fluoro-phenyl]methoxy]-5-[3-(4-ethylpiperazin-1-yl)propylcarbamoylamino]isothiazole-4-carboxamide]
1.2 nM	7.42 µM	NC(=O)c1c(OCc2ccc(F)c(C(=O)NC3CC3)c2)nsc1NC(=O)NCCCCN1CC[C@@H](O)C1 [Compound T150, 3-[[3-(cyclopropylcarbamoyl)-4-fluoro-phenyl]methoxy]-5-[4-[(3R)-3-hydroxypyrrolidin-1-yl]butylcarbamoylamino]isothiazole-4-carboxamide]
1.12 nM		NC(=O)c1c(OCc2cc(C(=O)NC3CC3)ccc2F)nsc1NC(=O)NCCCO [Compound T170, 3-[[5-(cyclopropylcarbamoyl)-2-fluoro-phenyl]methoxy]-5-(3-hydroxypropylcarbamoylamino)isothiazole-4-carboxamide]
0.95 nM		NCCCNC(=O)Nc1snc(OCc2cc(C(=O)NC3CC3)ccc2F)c1C(N)=O [Compound T167, 5-(3-aminopropylcarbamoylamino)-3-[[5-(cyclopropylcarbamoyl)-2-fluoro-phenyl]methoxy]isothiazole-4-carboxamide]
0.66 nM		NC(=O)c1c(OCc2cc(C(=O)NC3CC3)ccc2F)nsc1NC(=O)NCCCN1CCNCC1 [Compound T153, 3-[[5-(cyclopropylcarbamyl)-2-fluoro-phenyl]methoxy]-5-(3-piperazin-1-ylpropylcarbamylamino)isothiazol-4-formamide]
0.32 nM	11.2 µM	CCN1CCN(CCCNC(=O)Nc2snc(OCc3cc(C(=O)NC4CC4)ccc3F)c2C(N)=O)CC1 [Compound T163, 3-[[5-(cyclopropylcarbamoyl)-2-fluoro-phenyl]methoxy]-5-[3-(4-ethylpiperazin-1-yl)propylcarbamoylamino]isothiazole-4-carboxamide]
